Measured values published in article PMC6510728, “Efficacy of the novel CDK7 inhibitor QS1189 in mantle cell lymphoma” (Scientific Reports, 2019).
Read-outs that look alike come from different tables or passages of the source.

What was measured:
Jeko-1 cells = experiment: MTT assay, cell viability; assay type: cell-based; conditions: Homo sapiens, 72 h, read-out: IC50 values (nM, mean ± S.D.)
Procedure: (§1) The human lymphoma cell lines (Mino, Maver-1, Jeko-1, Z-138, OCI-Ly7, OCI-Ly10, SU-DHL-6, SU-DHL-8, U2932, Daudi, Namalwa, Raji, and Ramos) were purchased from the American Type Culture Collection (ATCC, Manassas, VA, USA) and DSMZ (Braunschweig, Germany). Cells were cultured in RPMI1640 medium containing 10% foetal bovine serum, 100 U/mL penicillin, and […] streptomycin (Invitrogen, Carlsbad, CA, USA) at 37 °C in an atmosphere of 5% CO2. OCI-Ly7 and OCI-Ly10 were cultured in IMDM. Tests for mycoplasma contamination were negative. Ibrutinib and venetocalx were purchased from Selleck Chemicals (Houston, TX, USA).
(§2) Cells (2 × 10^4) were seeded into 96-well sterile plastic plates overnight and then treated with the relevant drugs. After 72 h, 15 μL of MTT solution (5 mg/mL) was added to each well and the plates were incubated for 4 h. Crystalline formazan was solubilized with 100 μL of 10% (w/v) SDS solution for 24 h. Absorbance at 595 nm was read spectrophotometrically using a microplate reader. The results represent at least three independent experiments, and the error bars signify the standard deviation from the mean. The IC50 values were determined using GraphPad Prism software (GraphPad, Inc., La Jolla, CA, USA).

Maver-1 cells = experiment: MTT assay, cell viability; assay type: cell-based; conditions: Homo sapiens, Maver1, 72 h, read-out: IC50 values (nM, mean ± S.D.)
Procedure: as §1, §2

Mino cells = experiment: MTT assay, cell viability; assay type: cell-based; conditions: Homo sapiens, 72 h, read-out: IC50 values (nM, mean ± S.D.)
Procedure: as §1, §2

Z-138 cells = experiment: MTT assay, cell viability; assay type: cell-based; conditions: Homo sapiens, 72 h, read-out: IC50 values (nM, mean ± S.D.)
Procedure: as §1, §2

[1] = test system: patients with relapsed or refractory MCL; set-up: method as in PMID 23782157; conditions: cited from earlier work
OCI-Ly10 cells = experiment: MTT assay, cell viability; assay type: cell-based; conditions: Homo sapiens, 72 h, read-out: IC50 values (nM, mean ± S.D.)
Procedure: as §1, §2

SU-DHL-6 cells = experiment: MTT assay, cell viability; assay type: cell-based; conditions: Homo sapiens, 72 h, read-out: IC50 values (nM, mean ± S.D.)
Procedure: as §1, §2

U2932 cells = experiment: MTT assay, cell viability; assay type: cell-based; conditions: Homo sapiens, 72 h, read-out: IC50 values (nM, mean ± S.D.)
Procedure: as §1, §2

[2] = test system: venetoclax-resistant cells (Mino/VR-1, Mino/VR-2, Maver-1/VR-1, Maver-1/VR-2); experiment: MTT assay in cells with acquired resistance to venetoclax; assay type: cell-based, human; conditions: all resistant cells vs parental Mino and Maver-1, 72 h
Procedure: Maver-1/VR cells were established by chronic, repeated exposure to increasing venetoclax doses up to 1 μM for more than 8 months. Maver-1/VR cells were cloned by single-cell culture, and these resistant sublines were designated as Maver-1/VR-1 and Maver-VR-2. In all studies, resistant cells were cultured in drug-fee medium for >1 week to eliminate the effects of venetoclax. The genetic identity of each subclone with the parental cells was verified by short tandem repeat (STR) analysis conducted at Cosmogenetech (Cosmogenetech co. Ltd., Seoul, Korea) according to established protocols.
as §2

[3] = test system: patients with relapsed or refractory MCL; set-up: method as in PMID 28095146; conditions: phase I first-in-human study; cited from earlier work

SMILES	IC50 (Jeko-1 cells)	IC50 (Maver-1 cells)	IC50 (Mino cells)	IC50 (Z-138 cells)	best overall response rate [1]	complete response rate [1]	median progression-free survival [1]	IC50 (OCI-Ly10 cells)	IC50 (SU-DHL-6 cells)	IC50 (U2932 cells)	fold higher resistance to venetoclax than the parental cells [2]	best overall response rate [3]	complete response rate [3]	median progression-free survival [3]
C=CC(=O)N1CCC[C@@H](n2nc(-c3ccc(Oc4ccccc4)cc3)c3c(N)ncnc32)C1 [Ibrutinib, ibrutinib]	> 10000 nM	> 10000 nM	> 1000 nM	> 10000 nM	68%	21%	13.9 months							
CC1(C)CCC(CN2CCN(c3ccc(C(=O)NS(=O)(=O)c4ccc(NCC5CCOCC5)c([N+](=O)[O-])c4)c(Oc4cnc5[nH]ccc5c4)c3)CC2)=C(c2ccc(Cl)cc2)C1 [Venetoclax, venetoclax]	> 1000 nM	2.5 ± 0.4 nM	275 ± 62.9 nM	> 1000 nM				35.3 nM	66.9 nM	121 nM	10–100 fold	75%	21%	14 months
